Assay results published in US12331033B2, “Inhibitors of SARM1” (Disarm Therapeutics, Inc., priority 2020, dated 2025).

Molecular target: SARM1 (ARM-SAM-TIR) (Homo sapiens (Human), UniProt Q6SZW1)
Assay: ARM-SAM-TIR SARM1 IC50 assay (NADase activity, NAD+ cleavage, RapidFire MS)
Format: biochemical
Details: ARM-SAM-TIR lysate 5 μg/mL, 2 h pre-incubation, 5 μM NAD+, 2 hr room temperature
Protocol: This Example describes an assay of ARM-SAM-TIR NADase activity and use of this assay to measure the efficacy of compounds of Formula I or Formula I′ to block SARM1 mediated NAD+ cleavage. This assay was optimized in such a way as to characterize the efficacy of the compounds in Formula I or Formula I′ to inhibit SARM1 activity and to calculate an IC50 value for each compound. This assay makes use of full length SARM1, which encompasses the ARM, SAM and TIR domains.
NRK1-HEK293T cells were seeded onto 150 cm^2 plates at 20×10^6 cells per plate. The next day, the cells were transfected with 15 μg ARM-SAM-TIR expression plasmid, SEQ ID NO: 1.
The cultures were supplemented with 1 mM NR at time of transfection to minimize toxicity from ARM-SAM-TIR overexpression. Forty-eight hours after transfection, cells were harvested, pelleted by centrifugation at 1,000 rpm (Sorvall ST 16R centrifuge, Thermo Fisher), and washed once with cold PBS (0.01 M phosphate buffered saline NaCl 0.138 M; KCl 0.0027 M; pH 7.4). The cells were resuspended in PBS with protease inhibitors (cOmplete™ protease inhibitor cocktail, Roche product #11873580001) and cell lysates were prepared by sonication (Branson Sonifer 450, output=3, 20 episodes of stroke). The lysates were centrifuged (12,000×g for 10 min at 4° C.) to remove cell debris and the supernatants (containing ARM-SAM-TIR protein) were stored at −80° C. for later use in the in vitro ARM-SAM-TIR NADase assay (see below). Protein concentration was determined by the Bicinchoninic (BCA) method and used to normalize lysate concentrations.
The enzymatic assay was performed in a 384-well polypropylene plate in Dulbecco's PBS buffer in a final assay volume of 20 μL. ARM-SAM-TIR lysate with a final concentration of 5 μg/mL was pre-incubated with the respective compound at 1% DMSO final assay concentration over 2 h at room temperature. The reaction was initiated by addition of 5 μM final assay concentration of NAD+ as substrate. After a 2 hr room temperature incubation, the reaction was terminated with 40 μL of stop solution of 7.5% trichloroactetic acid in acetonitrile. The NAD+ and ADPR concentrations were analyzed by a RapidFire High Throughput Mass Spectrometry System (Agilent Technologies, Santa Clara, Calif.) using an API4000 triple quadrupole mass spectrometer (AB Sciex Framingham, Mass.).

Sequence of SARM1 (ARM-SAM-TIR) (Q6SZW1 other isoform, or with tags, fused parts or gaps): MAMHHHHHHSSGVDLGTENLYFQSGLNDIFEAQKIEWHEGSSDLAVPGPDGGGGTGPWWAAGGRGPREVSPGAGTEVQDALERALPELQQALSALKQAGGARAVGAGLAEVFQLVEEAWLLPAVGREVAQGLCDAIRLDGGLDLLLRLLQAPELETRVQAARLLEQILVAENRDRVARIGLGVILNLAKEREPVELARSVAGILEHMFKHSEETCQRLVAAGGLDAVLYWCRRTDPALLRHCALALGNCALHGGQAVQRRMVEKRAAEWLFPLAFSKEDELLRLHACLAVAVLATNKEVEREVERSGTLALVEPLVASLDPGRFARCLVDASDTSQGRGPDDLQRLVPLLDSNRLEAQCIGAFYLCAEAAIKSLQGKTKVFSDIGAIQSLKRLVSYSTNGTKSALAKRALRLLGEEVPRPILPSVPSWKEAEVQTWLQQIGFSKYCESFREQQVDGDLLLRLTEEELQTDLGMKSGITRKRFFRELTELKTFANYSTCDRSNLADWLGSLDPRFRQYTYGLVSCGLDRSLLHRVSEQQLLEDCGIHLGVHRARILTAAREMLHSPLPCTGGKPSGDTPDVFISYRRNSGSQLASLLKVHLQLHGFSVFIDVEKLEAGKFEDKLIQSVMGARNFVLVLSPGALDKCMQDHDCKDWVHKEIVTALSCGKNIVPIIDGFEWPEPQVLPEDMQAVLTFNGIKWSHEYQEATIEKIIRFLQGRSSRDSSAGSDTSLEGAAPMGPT

`O=C(CCc1ccc(Cl)nc1)Nc1nc(-c2ccncc2)c[nH]1` [Example 1] and `O=C(CCc1ccc(Cl)cc1)Nc1nc(-c2ccncc2)c[nH]1` [Example 20] cannot be ordered by IC50: under 5 µM for the first, under 5 µM for the second.

`O=C(CCc1ccc(C(F)(F)F)s1)Nc1cc(-c2ccncc2)n[nH]1` [Example 2] and `O=C(CCc1cnc(C(F)(F)F)nc1)Nc1cc(-c2ccncc2)n[nH]1` [Example 34] cannot be ordered by IC50: under 5 µM for the first, under 5 µM for the second.

`N[C@@H](Cc1ccc(Cl)cc1)C(=O)Nc1cc(-c2ccncc2)n[nH]1` [Example 3] and `O=C(NCc1ccc(Cl)cc1)Nc1cc(-c2ccncc2)n[nH]1` [Example 7] cannot be ordered by IC50: under 5 µM for the first, under 5 µM for the second.

`O=C(CNc1ccc(Cl)cc1)Nc1cc(-c2ccncc2)n[nH]1` [Example 4] and `CN(Cc1ccc(Cl)cc1)C(=O)Nc1cc(-c2ccncc2)n[nH]1` [Example 6] cannot be ordered by IC50: under 5 µM for the first, under 5 µM for the second.

Compared with `CC(C)(C)OC(=O)N(CC(=O)Nc1cc(-c2ccncc2)n[nH]1)c1ccc(Cl)cc1` [Example 5], `CC(C)(C)OC(=O)N(CC(=O)Nc1nnc(-c2ccncc2)[nH]1)c1ccccc1` [Example 70] is higher in IC50: under 5 µM for the first, over 30 µM for the second. The first is the more potent here.

`[2H]C([2H])(C(=O)Nc1nnc(-c2ccncc2)[nH]1)C([2H])([2H])c1ccc(Cl)nc1` [Example 8] and `[2H]C([2H])(C(=O)Nc1cc(-c2ccncc2)n[nH]1)C([2H])([2H])c1ccc(Cl)nc1` [Example 9] cannot be ordered by IC50: under 5 µM for the first, under 5 µM for the second.

`O=C(CCc1ccc(Cl)c(Br)c1)Nc1nnc(-c2ccncc2)[nH]1` [Example 10] and `O=C(CCc1ccc(Cl)c(F)c1)Nc1nnc(-c2ccncc2)[nH]1` [Example 45] cannot be ordered by IC50: under 5 µM for the first, under 5 µM for the second.

`O=C(CCc1ccc(Cl)cc1)Nc1nnc(-c2ccncc2F)[nH]1` [Example 11] and `O=C(CCc1ccc(Cl)cc1)Nc1nnc(-c2ccncc2Cl)[nH]1` [Example 59] cannot be ordered by IC50: under 5 µM for the first, under 5 µM for the second.

`O=C(CCc1ccc(Cl)s1)Nc1nnc(-c2ccnnc2)[nH]1` [Example 12] and `O=C(CCc1ccc(Cl)nc1)Nc1nnc(-c2ccnnc2)[nH]1` [Example 21] cannot be ordered by IC50: under 5 µM for the first, under 5 µM for the second.

`O=C(CCc1ccc(Cl)c(F)c1)Nc1nnc(-c2ccnnc2)[nH]1` [Example 13] and `O=C(CCc1ccc(Cl)cc1)Nc1nnc(-c2ccnnc2)[nH]1` [Example 53] cannot be ordered by IC50: under 5 µM for the first, under 5 µM for the second.

`O=C(CCc1cccc(F)c1)Nc1cc(-c2ccncc2)n[nH]1` [Example 14] and `O=C(CCc1ccc(F)cc1)Nc1cc(-c2ccncc2)n[nH]1` [Example 37] cannot be ordered by IC50: under 5 µM for the first, under 5 µM for the second.

`O=C(CCc1cccc(F)c1)Nc1nnc(-c2ccncc2)[nH]1` [Example 15] and `O=C(CCc1ccc(F)c(F)c1)Nc1nnc(-c2ccncc2)[nH]1` [Example 16] cannot be ordered by IC50: under 5 µM for the first, under 5 µM for the second.

`O=C(CCc1ccc(F)c(F)c1)Nc1cc(-c2ccncc2)n[nH]1` [Example 17] and `N#Cc1ccc(CCC(=O)Nc2cc(-c3ccncc3)n[nH]2)cc1` [Example 47] cannot be ordered by IC50: under 5 µM for the first, under 5 µM for the second.

`Cc1c(-c2ccncc2)n[nH]c1NC(=O)CCc1ccc(Cl)cc1` [Example 18] and `Cc1c(-c2ccncc2)n[nH]c1NC(=O)CCc1ccc(Cl)nc1` [Example 27] cannot be ordered by IC50: under 5 µM for the first, under 5 µM for the second.

`O=C(CCc1ccc(Cl)nc1)Nc1cc(-c2ccnnc2)n[nH]1` [Example 19] and `O=C(CCc1ccc(C(F)(F)F)cc1)Nc1cc(-c2ccnnc2)n[nH]1` [Example 30] cannot be ordered by IC50: under 5 µM for the first, under 5 µM for the second.

`O=C(Nc1nnc(-c2ccncc2)[nH]1)[C@H]1C[C@H](c2ccc(Cl)cc2)C1` [Example 22] and `O=C(Nc1nnc(-c2ccncc2)[nH]1)[C@H]1C[C@@H](c2ccc(Cl)cc2)C1` [Example 23] cannot be ordered by IC50: under 5 µM for the first, under 5 µM for the second.

`O=C(CCc1ccc(Cl)s1)Nc1cc(-c2ccnnc2)[nH]n1` [Example 24] and `O=C(CCc1ccc(Cl)s1)Nc1cc(-c2ccncc2)[nH]n1` [Example 54] cannot be ordered by IC50: under 5 µM for the first, under 5 µM for the second.

`O=C(CCc1ccc(Cl)cc1)Nc1cc(-c2ccncc2F)n[nH]1` [Example 25] and `O=C(CCc1ccc(Cl)cc1)Nc1cc(-c2ccncn2)n[nH]1` [Example 26] cannot be ordered by IC50: under 5 µM for the first, under 5 µM for the second.

`Clc1ccc(OCCNc2nnc(-c3ccncc3)[nH]2)cc1` [Example 28] and `Clc1ccc(CCCNc2nnc(-c3ccncc3)[nH]2)cc1` [Example 41] cannot be ordered by IC50: over 30 µM for the first, over 30 µM for the second.

`O=C(CC1CCOc2cc(Cl)ccc21)Nc1nnc(-c2ccncc2)[nH]1` (centres unmarked) [Example 29] and `O=C(C[C@@H]1CCOc2ccccc21)Nc1nnc(-c2ccncc2)[nH]1` [Example 71] cannot be ordered by IC50: under 5 µM for the first, under 5 µM for the second.

`Nc1cc(-c2cc(NC(=O)CCc3ccc(Cl)cc3)[nH]n2)ccn1` [Example 31] and `Nc1cc(-c2n[nH]c(NC(=O)CCc3ccc(Cl)cc3)n2)ccn1` [Example 43] cannot be ordered by IC50: under 5 µM for the first, under 5 µM for the second.

First: COc1cnccc1-c1nnc(NC(=O)CCc2ccc(Cl)cc2)[nH]1 [Example 32]
Second: O=C(CCc1ccc(Cl)cc1)Nc1nnc(-c2ccnc(O)c2)[nH]1 [Example 33]
The IC50 of the first is lower: under 5 µM for the first, over 30 µM for the second.

First: O=C(Cc1c[nH]c2cc(Cl)ccc12)Nc1nnc(-c2ccncc2)[nH]1 [Example 35]
Second: O=C(Cc1ccc(Cl)cc1)Nc1nnc(-c2ccncc2)[nH]1 [Example 65]
The IC50 of the first is higher: 5 to 15 µM for the first, under 5 µM for the second.

`O=C(CCc1ccc(Cl)cc1Cl)Nc1nnc(-c2ccncc2)[nH]1` [Example 36] and `O=C(CCc1ccc(Cl)cc1F)Nc1nnc(-c2ccncc2)[nH]1` [Example 46] cannot be ordered by IC50: under 5 µM for the first, under 5 µM for the second.

`O=C(CN1C(=O)COc2cc(Cl)ccc21)Nc1cc(-c2ccncc2)n[nH]1` [Example 38] and `O=C(CN1C(=O)COc2cc(Cl)ccc21)Nc1nnc(-c2ccncc2)[nH]1` [Example 39] cannot be ordered by IC50: over 30 µM for the first, over 30 µM for the second.

`O=C(CCc1ccc(Cl)cc1)Nc1cc(-c2ccnnc2)[nH]n1` [Example 40] and `O=C(CCc1ccc(Cl)nc1)Nc1cc(-c2ccncc2)[nH]n1` [Example 55] cannot be ordered by IC50: under 5 µM for the first, under 5 µM for the second.

Compared with `Cc1cc(-c2n[nH]c(NC(=O)CCc3ccc(Cl)cc3)n2)ccn1` [Example 42], `CCc1ccc(CCC(=O)Nc2nc(-c3ccncc3)n[nH]2)cc1` [Example 44] is lower in IC50: over 30 µM for the first, under 5 µM for the second.

Compared with `O=C(CN1CCOc2cc(Cl)ccc21)Nc1nnc(-c2ccncc2)[nH]1` [Example 48], `O=C(CN1CCCc2ccccc21)Nc1nnc(-c2ccncc2)[nH]1` [Example 76] is higher in IC50: under 5 µM for the first, over 30 µM for the second. The first is the more potent here.

`O=C(CCc1ccc2[nH]ncc2c1)Nc1nnc(-c2ccncc2)[nH]1` [Example 49] and `O=C(CCc1ccc(O)cc1)Nc1nnc(-c2ccncc2)[nH]1` [Example 74] cannot be ordered by IC50: over 30 µM for the first, over 30 µM for the second.

First: N#Cc1cc(Cl)ccc1CCC(=O)Nc1nnc(-c2ccncc2)[nH]1 [Example 50]
Second: NS(=O)(=O)c1ccc(CCC(=O)Nc2nnc(-c3ccncc3)[nH]2)cc1 [Example 77]
The IC50 of the first is lower: under 5 µM for the first, 15 to 30 µM for the second.

Compared with `O=C(CCc1ccc(Cl)cc1)Nc1cc(-c2ccncc2)cnc1O` [Example 51], `O=C(CCc1ccc(Cl)cc1)Nc1nc(-c2ccncc2)ns1` [Example 61] is lower in IC50: over 30 µM for the first, under 5 µM for the second.

First: CN(C)C(Cc1ccccc1)C(=O)Nc1nnc(-c2ccncc2)[nH]1 (centres unmarked) [Example 52]
Second: O=C(CNc1ccccc1)Nc1nnc(-c2ccncc2)[nH]1 [Example 69]
The IC50 of the first is higher: over 30 µM for the first, 5 to 15 µM for the second.

`N[C@@H](Cc1ccc(Cl)cc1)C(=O)Nc1nnc(-c2ccncc2)[nH]1` [Example 56] and `O=C(CCc1ccc(OC(F)F)cc1)Nc1nnc(-c2ccncc2)[nH]1` [Example 75] cannot be ordered by IC50: under 5 µM for the first, under 5 µM for the second.

Compared with `O=C(CCc1ncc(C(F)(F)F)cn1)Nc1nnc(-c2ccncc2)[nH]1` [Example 57], `O=C(CCc1ccc(C(F)(F)F)cc1)Nc1cc(-c2ccncc2)[nH]n1` [Example 62] is lower in IC50: 15 to 30 µM for the first, under 5 µM for the second. The second is the more potent here.

Compared with `O=C(CC1OCCc2ccccc21)Nc1nnc(-c2ccncc2)[nH]1` (centres unmarked) [Example 58], `O=C(C[C@@H]1CCc2ccccc21)Nc1nnc(-c2ccncc2)[nH]1` [Example 67] is lower in IC50: 5 to 15 µM for the first, under 5 µM for the second. The second is the more potent here.

First: O=C(CCc1ccc(Cl)cc1)Nc1nnc(-c2cncs2)[nH]1 [Example 60]
Second: O=C(C[C@H]1CCc2ccccc21)Nc1nnc(-c2ccncc2)[nH]1 [Example 68]
The IC50 of the first is lower: under 5 µM for the first, 5 to 15 µM for the second.

Going from `O=C(CC1CCNc2ccccc21)Nc1nnc(-c2ccncc2)[nH]1` (centres unmarked) [Example 63] to `O=C(C[C@H]1CCOc2ccccc21)Nc1nnc(-c2ccncc2)[nH]1` [Example 72], the IC50 falls from over 30 µM to under 5 µM.

Compared with `CC(C)(C)OC(=O)N1CCC(CC(=O)Nc2nnc(-c3ccncc3)[nH]2)c2ccccc21` (centres unmarked) [Example 64], `O=C(CC1COCc2ccccc21)Nc1nnc(-c2ccncc2)[nH]1` (centres unmarked) [Example 73] is lower in IC50: over 30 µM for the first, 5 to 15 µM for the second. The second is the more potent here.

With `O=C(Nc1nnc(-c2ccncc2)[nH]1)C12CC(c3ccccc3)(C1)C2` [Example 66] the IC50 was under 5 µM.
